Common to all, as to assay type: cell-based
Assay [1] has as its target T1, CDK2-NanoLuc fusion with CCNE1 in 293T or 293 cells (Homo sapiens, UniProt P24941).
T1 construct: host or cells: 293T (ATCC CRL-3216) or 293 (ATCC CRL-1573)
The assay is described as follows: NanoBRET Target Engagement (TE) Intracellular Kinase Assay, CDK2/CCNE1. To be noted: 2-hour incubation.

Assay [2] concerns Phospho-Rb Ser807/811 in OVCAR3 cells. Put plainly: OVCAR3 Phospho-Rb Ser807/811 HTRF assay. To be noted: Homo sapiens, OVCAR3 cells, Phospho-Rb Ser807/811 HTRF, 1 hour incubation, read-out: pRb-OVCAR3 IC50. As to the method:
Cells were trypsinized and resuspended in 1 mM hydroxyurea (Sigma; H8627), 90% RPMI and 10% fetal bovine serum. […] Dose response curve normalized to DMSO control was plotted using four-parameter logistic model for IC50 calculation.
A general note: TR-FRET usually uses a lanthanide donor and a delayed reading to cut background.

The target in assay [3] is T2, CDK1-NanoLuc fusion with CCNB1 in 293T or 293 cells (Homo sapiens, UniProt P06493).
T2 construct: host or cells: 293T (ATCC CRL-3216) or 293 (ATCC CRL-1573)
Put plainly: NanoBRET Target Engagement (TE) Intracellular Kinase Assay, CDK1/CCNB1. To be noted: NanoBRET TE intracellular kinase assay, 2-hour incubation, read-out: NanoBRET-CDK1/B1 IC50. Put shortly: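 IC50 derived by four-parameter logistic fit of DMSO-normalized acceptor/donor (610/450 nm) BRET ratio. Compound and Tracer K-10 were applied together for 2 h at 37° C to 293 or 293T cells transfected 24 h earlier with CDK1-NanoLuc fusion and cyclin B1.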
Background: Bioluminescence resonance energy transfer reports proximity on the nanometre scale.

Assay [4] addresses T3, CDK4-NanoLuc fusion with CCND1 in 293T or 293 cells (Homo sapiens, UniProt P11802).
T3 construct: host or cells: 293T (ATCC CRL-3216) or 293 (ATCC CRL-1573)
The assay is described as follows: NanoBRET Target Engagement (TE) Intracellular Kinase Assay, CDK4/CCND1. To be noted: NanoBRET TE intracellular kinase assay, 2-hour incubation, read-out: NanoBRET-CDK4/D1 IC50.

[5] abbreviates: NanoBRET TE intracellular kinase assay, read-out: NanoBRET-CDK2/E1 IC50.
Where [6] appears, read: NanoBRET-CDK2/E1 IC50, NanoBRET TE intracellular kinase assay.

pIC50: −log10 of the molar value. Where two headings read alike, the source gives them in different places. Where only a bound is given, the exact number is not on record here.

T2 sequence (P06493 whole entry, the tested form may be a part): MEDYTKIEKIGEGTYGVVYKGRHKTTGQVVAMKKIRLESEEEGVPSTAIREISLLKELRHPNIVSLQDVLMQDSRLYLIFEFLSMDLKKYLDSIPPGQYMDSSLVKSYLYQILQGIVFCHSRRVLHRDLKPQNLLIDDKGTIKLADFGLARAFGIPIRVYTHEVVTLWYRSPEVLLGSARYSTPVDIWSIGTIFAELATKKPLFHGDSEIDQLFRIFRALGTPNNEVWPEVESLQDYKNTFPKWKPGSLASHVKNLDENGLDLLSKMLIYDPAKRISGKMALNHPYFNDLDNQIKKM
T2 sequence (P14635 whole entry partner, the tested form may be a part): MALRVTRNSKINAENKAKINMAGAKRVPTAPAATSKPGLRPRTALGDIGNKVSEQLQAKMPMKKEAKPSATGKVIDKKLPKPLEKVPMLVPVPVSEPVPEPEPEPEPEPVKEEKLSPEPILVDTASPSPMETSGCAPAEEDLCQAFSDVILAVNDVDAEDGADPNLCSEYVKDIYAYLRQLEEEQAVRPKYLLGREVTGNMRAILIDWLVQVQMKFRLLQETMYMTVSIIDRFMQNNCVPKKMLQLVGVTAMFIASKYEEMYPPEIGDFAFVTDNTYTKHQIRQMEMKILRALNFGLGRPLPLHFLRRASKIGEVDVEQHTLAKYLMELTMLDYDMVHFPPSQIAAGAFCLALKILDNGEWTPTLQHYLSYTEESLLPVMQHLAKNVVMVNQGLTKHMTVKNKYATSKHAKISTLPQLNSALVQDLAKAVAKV
T3 sequence (P11802 whole entry, the tested form may be a part): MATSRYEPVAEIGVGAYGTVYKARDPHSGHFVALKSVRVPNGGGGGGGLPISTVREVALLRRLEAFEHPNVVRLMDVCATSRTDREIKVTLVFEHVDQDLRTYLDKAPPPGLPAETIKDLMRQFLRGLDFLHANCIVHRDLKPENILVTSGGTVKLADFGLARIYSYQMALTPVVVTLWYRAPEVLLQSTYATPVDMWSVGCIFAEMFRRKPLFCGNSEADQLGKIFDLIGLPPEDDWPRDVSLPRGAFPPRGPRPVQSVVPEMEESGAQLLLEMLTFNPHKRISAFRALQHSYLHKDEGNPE
T3 sequence (P24385 whole entry partner, the tested form may be a part): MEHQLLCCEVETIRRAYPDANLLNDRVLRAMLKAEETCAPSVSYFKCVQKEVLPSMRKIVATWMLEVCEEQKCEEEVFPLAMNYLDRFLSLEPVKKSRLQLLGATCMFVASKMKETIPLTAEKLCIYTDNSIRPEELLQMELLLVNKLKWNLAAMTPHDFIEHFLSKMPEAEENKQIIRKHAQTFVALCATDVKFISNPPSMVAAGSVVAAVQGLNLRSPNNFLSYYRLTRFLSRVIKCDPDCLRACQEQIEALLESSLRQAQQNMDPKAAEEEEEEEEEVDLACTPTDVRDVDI

Consider `CC1(NC(=O)O[C@@H]2CC[C@H](c3cc(NC(=O)COc4cccc(O)c4C=O)n[nH]3)C2)CCC1` [Compound 83, (1R,3S)-3-{5-[2-(2-formyl-3-hydroxyphenoxy)acetamido]-2H-pyrazol-3-yl}cyclopentyl N-(1-methylcyclobutyl) carbamate; trifluoroacetic acid], for which the pIC50 is 8.32 in assay [1] (setting [5]); 7.08 in assay [2] (OVCAR-3, 1 h); 8.21 in assay [3]; 5.60 in assay [4].

Take `CC(C)(C)NC(=O)O[C@@H]1CC[C@H](c2cc(NC(=O)COc3cccc(O)c3C=O)n[nH]2)C1` [Compound 84, (1R,3S)-3-(3-(2-(2-formyl-3-hydroxyphenoxy)acetamido)-1H-pyrazol-5-yl)cyclopentyl tert-butylcarbamate]: the pIC50 in assay [1] (setting [5]) was 8.23; in assay [2] (OVCAR-3, 1 h), 6.64; in assay [3] it was 7.82; in assay [4], 5.28.

As to `O=Cc1c(O)cccc1OCC(=O)Nc1cc([C@H]2CC[C@@H](OC(=O)N3CCCC3)C2)[nH]n1` [Compound 85, (1R,3S)-3-{5-[2-(2-formyl-3-hydroxyphenoxy)acetamido]-2H-pyrazol-3-yl}cyclopentyl pyrrolidine-1-carboxylate], the pIC50 was 8.59 in assay [1] (setting [5]); 6.75 in assay [2] (OVCAR-3, 1 h); 7.63 in assay [3]; under 5.00 in assay [4].

`O=Cc1c(O)cccc1OCC(=O)Nc1cc([C@H]2CC[C@@H](OC(=O)NC3CC3)C2)[nH]n1` [Compound 86, (1R,3S)-3-(3-(2-(2-formyl-3-hydroxyphenoxy)acetamido)-1H-pyrazol-5-yl)cyclopentyl cyclopropylcarbamate]: the pIC50 in assay [1] (setting [5]) is 8.43; in assay [2] (OVCAR-3, 1 h), 6.67; in assay [3], 7.49; in assay [4], under 5.00.

Turning to `O=Cc1c(O)cccc1OCC(=O)Nc1cc([C@H]2CC[C@@H](OC(=O)NC3CCC3)C2)[nH]n1` [Compound 87, (1R,3S)-3-(3-(2-(2-formyl-3-hydroxyphenoxy)acetamido)-1H-pyrazol-5-yl)cyclopentyl cyclobutylcarbamate], the pIC50 was 8.56 in assay [1] (setting [5]); 6.68 in assay [2] (OVCAR-3, 1 h); 7.61 in assay [3]; 5.01 in assay [4].

`O=Cc1c(O)cccc1OCC(=O)Nc1cc([C@H]2CC[C@@H](OC(=O)NC3CCCC3)C2)[nH]n1` [Compound 88, (1R,3S)-3-(3-(2-(2-formyl-3-hydroxyphenoxy)acetamido)-1H-pyrazol-5-yl)cyclopentyl cyclopentylcarbamate]: the pIC50 was 8.46 in assay [1] (setting [5]); 6.64 in assay [2] (OVCAR-3, 1 h); 7.38 in assay [3]; under 5.00 in assay [4].

For `CC(C)NC(=O)O[C@@H]1CC[C@H](c2cc(NC(=O)C3CCN(c4cccc(O)c4C=O)CC3)n[nH]2)C1` [Compound 92, (1R,3S)-3-{5-[1-(2-formyl-3-hydroxyphenyl)piperidine-4-amido]-2H-pyrazol-3-yl}cyclopentyl N-isopropylcarbamate], the pIC50 is 7.79 in assay [1] (setting [5]); 5.62 in assay [2] (OVCAR-3, 1 h); 6.56 in assay [3]; 5.42 in assay [4].

Take `CC(C)NC(=O)O[C@@H]1CC[C@H](c2cc(NC(=O)C3CCN(c4cccc(O)c4C=O)C3)n[nH]2)C1` (stereo partly drawn) [Compound 93, (1R,3S)-3-{5-[1-(2-formyl-3-hydroxyphenyl)pyrrolidine-3-amido]-2H-pyrazol-3-yl}cyclopentyl N-isopropylcarbamate]: the pIC50 in assay [1] (setting [5]) is 8.07; in assay [2] (OVCAR-3, 1 h), 6.41; in assay [3], 6.77; in assay [4] it was 5.64.

As for `COc1cccc(OCC(=O)Nc2cc([C@H]3CC[C@@H](OC(=O)NC(C)C)C3)[nH]n2)c1C=O` [Compound 95, (1R,3S)-3-{5-[2-(2-formyl-3-methoxyphenoxy)acetamido]-2H-pyrazol-3-yl}cyclopentyl N-isopropylcarbamate; trifluoroacetic acid], the pIC50 in assay [1] (setting [5]) is 8.90; in assay [2] (OVCAR-3, 1 h) it was 6.94; in assay [3], 7.67; in assay [4], under 5.00.

Take `CC(C)NC(=O)O[C@@H]1CC[C@H](c2cc(NC(=O)CSc3cccc(O)c3C=O)n[nH]2)C1` [Compound 96, (1R,3S)-3-(5-{2-[(2-formyl-3-hydroxyphenyl)sulfanyl]acetamido}-2H-pyrazol-3-yl)cyclopentyl N-isopropylcarbamate; trifluoroacetic acid]: the pIC50 in assay [1] (setting [5]) is 8.15; in assay [2] (OVCAR-3, 1 h), 6.22; in assay [3] it was 6.89; in assay [4], 5.74.

`CC(C)NC(=O)O[C@@H]1CC[C@H](c2cc(NC(=O)COc3cccc(Cl)c3C=O)n[nH]2)C1` [Compound 97, (1R,3S)-3-{5-[2-(3-chloro-2-formylphenoxy)acetamido]-2H-pyrazol-3-yl}cyclopentyl N-isopropylcarbamate]: the pIC50 in assay [1] (setting [5]) was 8.06; in assay [2] (OVCAR-3, 1 h), 5.52; in assay [3], 5.94; in assay [4], 5.03.

Turning to `CC(C)NC(=O)O[C@@H]1CC[C@H](c2cc(NC(=O)COc3cccc(-c4nccs4)c3C=O)n[nH]2)C1` [Compound 98, (1R,3S)-3-(3-(2-(2-formyl-3-(thiazol-2-yl)phenoxy)acetamido)-1H-pyrazol-5-yl)cyclopentyl isopropylcarbamate], the pIC50 in assay [1] (setting [5]) is 7.92; in assay [2] (OVCAR-3, 1 h) it was 5.48; in assay [3] it was 5.83; in assay [4] it was under 5.00.

`C#Cc1cc(O)c(C=O)c(OCC(=O)Nc2cc([C@H]3CC[C@@H](OC(=O)NC(C)C)C3)[nH]n2)c1` [Compound 99, (1R,3S)-3-(3-(2-(5-ethynyl-2-formyl-3-hydroxyphenoxy)acetamido)-1H-pyrazol-5-yl)cyclopentyl isopropylcarbamate]: the pIC50 was 8.50 in assay [1] (setting [5]); 6.59 in assay [2] (OVCAR-3, 1 h); 7.67 in assay [3]; under 5.00 in assay [4].

For the compound `CC(C)NC(=O)O[C@@H]1CC[C@H](c2cc(NC(=O)COc3cc(OC(F)F)cc(O)c3C=O)n[nH]2)C1` [Compound 100, (1R,3S)-3-(5-{2-[5-(difluoromethoxy)-2-formyl-3-hydroxyphenoxy]acetamido}-2H-pyrazol-3-yl)cyclopentyl N-isopropylcarbamate], the pIC50 is 8.14 in assay [1] (setting [5]); 6.92 in assay [2] (OVCAR-3, 1 h); 7.89 in assay [3]; 5.06 in assay [4].

As to `C[C@@H]1CCCN1C(=O)O[C@@H]1CC[C@H](c2cc(NC(=O)COc3cccc(O)c3C=O)n[nH]2)C1` [Compound 101, (1R,3S)-3-{5-[2-(2-formyl-3-hydroxyphenoxy)acetamido]-2H-pyrazol-3-yl}cyclopentyl (2R)-2-methylpyrrolidine-1-carboxylate; trifluoro-acetic acid], the pIC50 is 8.24 in assay [1] (setting [6]), 6.73 in assay [2] (OVCAR-3), 7.69 in assay [3] and 5.04 in assay [4].

`C[C@H]1CCCN1C(=O)O[C@@H]1CC[C@H](c2cc(NC(=O)COc3cccc(O)c3C=O)n[nH]2)C1` [Compound 102, (S)-((1R,3S)-3-(3-(2-(2-formyl-3-hydroxyphenoxy)acetamido)-1H-pyrazol-5-yl)cyclopentyl) 2-methylpyrrolidine-1-carboxylate; trifluoroacetic acid]: the pIC50 is 8.38 in assay [1] (setting [6]), 7.11 in assay [2] (OVCAR-3), 8.08 in assay [3] and 5.54 in assay [4].

In the case of `COc1cccc(OCC(=O)Nc2cc([C@H]3CC[C@@H](OC(=O)NC4(C)CCC4)C3)[nH]n2)c1C=O` [Compound 105, (1R,3S)-3-{5-[2-(2-formyl-3-methoxyphenoxy)acetamido]-2H-pyrazol-3-yl}cyclopentyl N-(1-methylcyclobutyl)carbamate; trifluoroacetic acid], the pIC50 was 9.00 in assay [1] (setting [5]); 7.18 in assay [2] (OVCAR-3, 1 h); 8.66 in assay [3]; 5.63 in assay [4].

As for `COc1cccc(-c2cc(C(=O)Nc3cc([C@H]4CC[C@@H](OC(=O)NC(C)C)C4)[nH]n3)n(C)n2)c1C=O` [Compound 106, (1R,3S)-3-{5-[5-(2-formyl-3-methoxyphenyl)-2-methylpyrazole-3-amido]-2H-pyrazol-3-yl}cyclopentyl N-isopropylcarbamate; trifluoroacetic acid], the pIC50 in assay [1] (setting [5]) was 8.37; in assay [2] (OVCAR-3, 1 h), 6.51; in assay [3], 7.81; in assay [4], 5.48.

As to `CC(C)NC(=O)O[C@@H]1CC[C@H](c2cc(NC(=O)[C@H]3C[C@H](c4cccc(O)c4C=O)C3)n[nH]2)C1` [Compound 107, (1R,3S)-3-(3-((1r,3S)-3-(2-formyl-3-hydroxyphenyl)cyclobutane-1-carboxamido)-1H-pyrazol-5-yl)cyclopentyl isopropylcarbamate], the pIC50 in assay [1] (setting [5]) was 8.36; in assay [2] (OVCAR-3, 1 h), 7.22; in assay [3], 7.92; in assay [4], 6.65.
